Experiments:
[1] = target: T1, double-labeled CYP3A4 C64/C121-DY/ER (Homo sapiens, UniProt P08684, A121C/C239S/C377S/C468A/C98S/S18F); test: Steady-state LRET titration (delayed emission); settings: Table S2; protein C64/C121-ER/DY; same ligand concentrations
Description: (§1) All absorbance and fluorescence assays (including the time-resolved fluorescence measurements) were performed at a protein concentration ≤1 µM at 25°C with continuous stirring. Absorbance spectra were recorded with an S2000 rapid scanning CCD spectrometer (Ocean Optics). Ligand binding assays were done in 100 mM Na-Hepes buffer, pH 7.4, containing 0.5 mM EDTA.
(§2) Fluorescence-based ligand binding assays were done under anaerobic conditions. Anaerobiosis was achieved using an oxygen-scavenging system consisting of protecatechuate-3,4-dioxygenase (0.5 units/ml) and 5 mM protocatechuic acid. The steady state and time-resolved phosphorescence measurements were performed with the use of a Cary Eclipse fluorescence spectrophotometer (Varian/Agilent Technologies). The excitation wavelength was set to 540 nm. Spectra were taken from 650 to 860 nm with 100 µs delay.
(§3) Quantitative interpretation of LRET results was also based on the use of PCA applied to a series of emission spectra normalized on integral intensity. […] Intensity of the donor and acceptor fluorescence obtained in this way were used in determination of the efficiency of steady-state LRET using the equation [drawing 1] (Eq.1) where I ad is emission intensity of the acceptor, I da is the residual donor emission in the presence of acceptor (I da), Φ a and Φ d are the quantum yield of the fluorescence of acceptor and the quantum yield of the phosphorescence of donor, respectively.
(§4) Distances were calculated using the equation: [drawing 3] (Eq.3) where R 0 is the Förster distance, and R is the distance between the donor and acceptor. R 0 was calculated with the use of PhotoChemCad software. In these calculations, we used the values of the orientation factor (κ^2) and the refractive index (n) of 0.667 and 1.4, respectively.
(§5) When fitting the results of titration experiments, where the changes in the monitored signal A S (fraction of the enzyme in the high-spin state, intensity or the lifetime of the donor phosphorescence at a given substrate concentration) were assumed to be proportional to [ES], this equation was complemented with the offset A 0 and the scaling factor A max to yield the following relationship: [drawing 5] (Eq.5)

[2] = target: T2, double-labeled CYP3A4 (C64/C468)-DY/ER (Homo sapiens, UniProt P08684, S18F, form not given); test: Time-resolved LRET (phosphorescence lifetime measurements)
T2 sequence (P08684 13-503 S18F, form open): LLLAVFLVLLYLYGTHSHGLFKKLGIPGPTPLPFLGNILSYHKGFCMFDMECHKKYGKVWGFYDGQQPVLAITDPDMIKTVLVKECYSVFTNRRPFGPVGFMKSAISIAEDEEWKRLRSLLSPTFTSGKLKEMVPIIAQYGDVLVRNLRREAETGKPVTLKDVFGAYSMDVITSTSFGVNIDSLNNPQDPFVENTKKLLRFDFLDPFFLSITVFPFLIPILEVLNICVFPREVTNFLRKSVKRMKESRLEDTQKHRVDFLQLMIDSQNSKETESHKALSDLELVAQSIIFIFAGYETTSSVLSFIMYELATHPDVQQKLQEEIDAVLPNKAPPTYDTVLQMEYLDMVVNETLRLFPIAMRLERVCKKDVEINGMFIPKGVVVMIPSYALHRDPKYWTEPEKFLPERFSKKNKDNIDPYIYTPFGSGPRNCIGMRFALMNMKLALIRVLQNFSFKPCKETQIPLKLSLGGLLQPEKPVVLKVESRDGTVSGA
Excerpt: (§6) The excitation wavelength was set to 540 nm.

[3] = target: T3, double-labeled CYP3A4 (C64/C468)-ER/DY (Homo sapiens, UniProt P08684, S18F, form not given); test: as above
T3 sequence (P08684 13-503 S18F, form open): as above
Excerpt: as §6

[4] = target: T4, double-labeled CYP3A4 C377/C468-DY/ER (Homo sapiens, UniProt P08684, S18F, form not given); test: as above
T4 sequence (P08684 13-503 S18F, form open): as above
Excerpt: as §6

[5] = target: CYP3A4 (double-labeled (C64/C468)-DY/ER) (Homo sapiens, UniProt P08684, form not given/S18F); test: Steady-state LRET titration (delayed emission); assay type: binding; settings: human, purified double-labeled CYP3A4 (C64/C468)-DY/ER protein, pH 7.4; (C64/C468)-DY/ER; LRET titration; read-out: K d, steady-state fluorescence
Sequence of CYP3A4 (double-labeled (C64/C468)-DY/ER) (P08684 13-503 S18F, form open): as above
Description: as §1, §2, §3, §4, §5

[6] = target: CYP3A4 (double-labeled (C64/C468)-ER/DY) (Homo sapiens, UniProt P08684, form not given/S18F); test: Steady-state LRET titration (delayed emission); assay type: binding; settings: human, purified double-labeled CYP3A4 (C64/C468)-ER/DY protein, pH 7.4; (C64/C468)-ER/DY; LRET titration; read-out: K d, steady-state fluorescence
Sequence of CYP3A4 (double-labeled (C64/C468)-ER/DY) (P08684 13-503 S18F, form open): as above
Description: as §1, §2, §3, §4, §5

[7] = target: T2, double-labeled CYP3A4 (C64/C468)-DY/ER; test: Steady-state LRET titration (delayed emission); assay type: binding
Description: as §1, §2, §3, §4, §5

[8] = target: T3, double-labeled CYP3A4 (C64/C468)-ER/DY; test: Steady-state LRET titration (delayed emission); assay type: binding
Description: as §1, §2, §3, §4, §5

[9] = target: T4, double-labeled CYP3A4 C377/C468-DY/ER; test: Steady-state LRET titration (delayed emission); assay type: binding; settings: Table S2, protein C377/C468-ER/DY
Description: as §1, §2, §3, §4, §5

[10] = target: T1, double-labeled CYP3A4 C64/C121-DY/ER; test: Time-resolved LRET (phosphorescence lifetime measurements); settings: same ligand concentrations
Description: as §1, §2
The treatment of the time-resolved decay traces was performed using a bi-exponential approximation. The efficiency of time-resolved LRET was calculated using the equation [drawing 2] (Eq.2)
In this equation τda and τd designate the average lifetime of the excited state of the donor in the presence and absence of the acceptor, respectively. These average lifetimes are determined as τ = α1τ1+α2τ2, where τ1,2 and α1,2 stay for the lifetime and the relative amplitude of each of the two exponential terms. In our calculations of the lifetime in double-labeled C64/C468, C377/C468 and C64/C121 proteins we used the lifetimes of phosphorescence measured with the respective proteins labeled with ERIA at a label:protein ratio 2∶1 as the estimates of τd.
as §4

[11] = (C64/C468)-DY/ER, nearly-saturating ligand: ANF 100 µM, bromocriptine 2.5 µM, cholesterol 50 µM, testosterone 100 µM
[12] = Table S1, (C64/C468)-DY/ER, same ligand concentrations
[13] = Table S2, C64/C468-DY/ER, 1-PB 40 µM, ANF 100 µM, BCT 2.5 µM, cholesterol 100 µM, testosterone 100 µM
[14] = Table S2, C64/C468-DY/ER, same ligand concentrations
[15] = (C64/C468)-ER/DY, nearly-saturating ligand: ANF 100 µM, bromocriptine 2.5 µM, cholesterol 50 µM, testosterone 100 µM
[16] = Table S1, (C64/C468)-ER/DY, same ligand concentrations
[17] = Table S2, C64/C468-ER/DY, 1-PB 40 µM, ANF 100 µM, BCT 2.5 µM, cholesterol 100 µM, testosterone 100 µM
[18] = Table S2, C64/C468-ER/DY, same ligand concentrations
[19] = Table S1, protein (C377/C468)-ER/DY, same ligand concentrations
[20] = Table S2, protein C377/C468-ER/DY, same ligand concentrations
[21] = Table S1, protein (C64/C121)-ER/DY
[22] = Table S2, protein C64/C121-ER/DY

T1 sequence (P08684 with tags, fused parts or gaps S18F/C98S/A121C/C239S/C377S/C468A limits assumed): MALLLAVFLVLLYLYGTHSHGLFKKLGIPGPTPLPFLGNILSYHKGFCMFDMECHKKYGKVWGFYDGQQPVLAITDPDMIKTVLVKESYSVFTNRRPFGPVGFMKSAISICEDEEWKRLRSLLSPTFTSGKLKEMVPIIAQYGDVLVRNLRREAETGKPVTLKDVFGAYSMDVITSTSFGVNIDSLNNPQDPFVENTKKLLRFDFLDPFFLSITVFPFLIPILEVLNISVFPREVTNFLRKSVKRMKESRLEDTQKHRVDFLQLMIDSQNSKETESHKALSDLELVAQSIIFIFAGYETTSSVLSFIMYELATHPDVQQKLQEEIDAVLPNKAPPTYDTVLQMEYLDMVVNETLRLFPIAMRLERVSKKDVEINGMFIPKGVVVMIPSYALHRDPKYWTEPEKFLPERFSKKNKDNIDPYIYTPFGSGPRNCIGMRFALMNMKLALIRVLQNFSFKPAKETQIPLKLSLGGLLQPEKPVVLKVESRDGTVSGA

CC(C)CCC[C@@H](C)[C@H]1CC[C@H]2[C@@H]3CC=C4C[C@@H](O)CC[C@]4(C)[C@H]3CC[C@]12C [Cholesterol, cholesterol]
R (interprobe distance with ligand), steady-state measurements [1]: 43.6 ± 0.5 Å | ΔR, steady-state measurements [1]: 1.0 ± 0.5 Å | ΔELT (change in LRET efficiency), lifetime measurements [2, 11]: −5.9±3% | ΔR (change in interprobe distance), lifetime measurements [2, 11]: 1.6±1.0 Å | τ1 (phosphorescence decay time with ligand) ([2]; Table S1, (C64/C468)-DY/ER, 1-PB 40 µM, ANF 100 µM, BCT 2.5 µM, cholesterol 100 µM, testosterone 100 µM, bi-exponential fit): 59 ± 1 µs | F1 (fraction of first exponential) [2, 12]: 43 ± 2% | τ2 (phosphorescence decay time with ligand) [2, 12]: 221 ± 1 µs | τav (average phosphorescence lifetime with ligand) [2, 12]: 152 ± 6 µs | E (LRET efficiency with ligand), lifetime measurements [2, 13]: 35 ± 3% | R (interprobe distance with ligand), lifetime measurements [2, 14]: 38.3 ± 0.7 Å | ΔR, lifetime measurements [2, 14]: 1.6 ± 0.7 Å | ΔELT (change in LRET efficiency), lifetime measurements [3, 15]: −16.6±1% | ΔR (change in interprobe distance), lifetime measurements [3, 15]: 4.8±0.2 Å | τ1 (phosphorescence decay time with ligand) ([3]; Table S1, (C64/C468)-ER/DY, 1-PB 40 µM, ANF 100 µM, BCT 2.5 µM, cholesterol 100 µM, testosterone 100 µM, bi-exponential fit): 79 ± 1 µs | F1 (fraction of first exponential) [3, 16]: 53 ± 7% | τ2 (phosphorescence decay time with ligand) [3, 16]: 268 ± 2 µs | τav (average phosphorescence lifetime with ligand) [3, 16]: 173 ± 1 µs | E (LRET efficiency with ligand), lifetime measurements [3, 17]: 26 ± 1% | R (interprobe distance with ligand), lifetime measurements [3, 18]: 41.1± 0.2 Å | ΔR, lifetime measurements [3, 18]: 4.8 ± 0.2 Å | τ1 (phosphorescence decay time with ligand) ([4]; Table S1, protein (C377/C468)-ER/DY, 1-PB 40 µM, ANF 100 µM, BCT 2.5 µM, cholesterol 100 µM, testosterone 100 µM, bi-exponential fit): 38 ± 1 µs | F1 (fraction of first exponential) [4, 19]: 23 ± 5% | τ2 (phosphorescence decay time with ligand) [4, 19]: 163 ± 8 µs | τav (average phosphorescence lifetime with ligand) [4, 19]: 134 ± 3 µs | E (LRET efficiency with ligand), lifetime measurements ([4]; Table S2, protein C377/C468-ER/DY, 1-PB 40 µM, ANF 100 µM, BCT 2.5 µM, cholesterol 100 µM, testosterone 100 µM): 26 ± 2% | R (interprobe distance with ligand), lifetime measurements [4, 20]: 41.0 ± 0.6 Å | ΔR, lifetime measurements [4, 20]: 4.2 ± 0.6 Å | Kd [5]: 6.5 ± 1.1 µM | Kd [6]: 7.7 ± 0.9 µM | ΔR (change in interprobe distance), steady-state fluorescence ([7]; (C64/C468)-DY/ER): 5.9±2.0 Å | ΔE (change in LRET efficiency), steady-state fluorescence ([7]; (C64/C468)-DY/ER, from maximal relative change in donor intensity): −11±1% | E (LRET efficiency with ligand), steady-state measurements [7, 13]: 24 ± 1% | R (interprobe distance with ligand), steady-state measurements [7, 14]: 40.8 ± 2.0 Å | ΔR, steady-state measurements [7, 14]: 5.9 ± 2.0 Å | ΔR (change in interprobe distance), steady-state fluorescence ([8]; (C64/C468)-ER/DY): 3.5±0.7 Å | ΔE (change in LRET efficiency), steady-state fluorescence ([8]; (C64/C468)-ER/DY, from maximal relative change in donor intensity): −10±5% | E (LRET efficiency with ligand), steady-state measurements [8, 17]: 19 ± 1% | R (interprobe distance with ligand), steady-state measurements [8, 18]: 42.6 ± 0.7 Å | ΔR, steady-state measurements [8, 18]: 3.5 ± 0.7 Å | E (LRET efficiency with ligand), steady-state measurements ([9]; 1-PB 40 µM, ANF 100 µM, BCT 2.5 µM, cholesterol 100 µM, testosterone 100 µM): 14 ± 0% | R (interprobe distance with ligand), steady-state measurements ([9]; same ligand concentrations): 45.2 ± 0.1 Å | ΔR, steady-state measurements ([9]; same ligand concentrations): 0.5 ± 0.1 Å | F1 (fraction of first exponential) [10, 21]: 44 ± 3% | τ2 (phosphorescence decay time with ligand) [10, 21]: 222 ± 8 µs | τav (average phosphorescence lifetime with ligand) [10, 21]: 154 ± 1 µs | R (interprobe distance with ligand), lifetime measurements [10, 22]: 35.8 ± 0.1 Å | ΔR, lifetime measurements [10, 22]: 0.8 ± 0.1 Å

Source: PMC3871636 (PLoS ONE, 2013)
